Experimental data taken from patent US10213427B2 (Incyte Corporation, priority 2010, dated 2019).

What follows are compounds tested against FGFR3 enzyme (Millipore) (Homo sapiens (Human), UniProt P22607) (assay: FGFR3 Enzymatic Assay). Details: FRET peptide phosphorylation, 140 μM ATP.
Assay type: biochemical
Outline: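 FGFR3 preincubated 5-10 min with serially diluted inhibitor in 50 mM HEPES pH 7.5, 10 mM MgCl2, 1 mM EGTA, 5 mM DTT, then reacted 1 h at 25 °C. Peptide phosphorylation detected by FRET; IC50 from variable-slope sigmoidal fit.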

Sequence of FGFR3 enzyme (Millipore) (P22607 23-806): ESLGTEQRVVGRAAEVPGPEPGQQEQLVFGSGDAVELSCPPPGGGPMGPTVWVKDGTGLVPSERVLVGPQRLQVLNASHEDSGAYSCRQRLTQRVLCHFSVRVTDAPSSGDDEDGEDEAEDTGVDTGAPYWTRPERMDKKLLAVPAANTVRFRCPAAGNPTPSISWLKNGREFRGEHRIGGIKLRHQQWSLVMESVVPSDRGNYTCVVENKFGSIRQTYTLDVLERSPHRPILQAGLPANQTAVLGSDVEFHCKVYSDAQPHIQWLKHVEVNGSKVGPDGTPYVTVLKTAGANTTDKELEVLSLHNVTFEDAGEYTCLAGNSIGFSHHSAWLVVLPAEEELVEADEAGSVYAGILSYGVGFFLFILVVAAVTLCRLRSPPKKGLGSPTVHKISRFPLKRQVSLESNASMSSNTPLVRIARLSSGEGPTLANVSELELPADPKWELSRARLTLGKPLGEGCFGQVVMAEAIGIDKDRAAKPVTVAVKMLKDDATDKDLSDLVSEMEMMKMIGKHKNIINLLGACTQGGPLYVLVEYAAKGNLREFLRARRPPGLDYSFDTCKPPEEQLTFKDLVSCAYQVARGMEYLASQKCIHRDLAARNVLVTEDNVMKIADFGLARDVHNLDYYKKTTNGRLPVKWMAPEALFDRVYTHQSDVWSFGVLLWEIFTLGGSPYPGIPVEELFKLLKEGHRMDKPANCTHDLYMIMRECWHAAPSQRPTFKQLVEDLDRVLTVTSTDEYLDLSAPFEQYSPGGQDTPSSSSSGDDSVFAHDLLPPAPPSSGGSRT

Structure (SMILES) | IC50 [nM]
N#CCC(C1CC1)n1cc(-c2cnn3c(-c4cccc(NC(=O)NCC(F)(F)F)c4)cnc3c2)cn1 (centres unmarked) [Example 92, N-(3-{7-[1-(2-Cyano-1-cyclopropylethyl)-1H-pyrazol-4-yl]imidazo[1,2-b]pyridazin-3-yl}phenyl)-N′-(2,2,2-trifluoroethyl)urea] | < 10
N#CCC(c1ccccc1)n1cc(-c2cnn3c(-c4cccc(NC(=O)NCC(F)(F)F)c4)cnc3c2)cn1 (centres unmarked) [Example 93, N-(3-{7-[1-(2-Cyano-1-phenylethyl)-1H-pyrazol-4-yl]imidazo[1,2-b]pyridazin-3-yl}phenyl)-N′-(2,2,2-trifluoroethyl)urea] | < 10
CNC(=O)Nc1cccc(-c2cnc3cc(-c4cccc(C(=O)NCc5ccccc5F)c4)cnn23)c1 [Example 96, N-(2-Fluorobenzyl)-3-[3-(3-{[(methylamino)carbonyl]amino}phenyl)imidazo[1,2-b]pyridazin-7-yl]benzamide] | > 25
CNC(=O)Nc1cccc(-c2cnc3cc(-c4cccc(C(=O)NC(C)c5ccccc5F)c4)cnn23)c1 (centres unmarked) [Example 97, N-[1-(2-Fluorophenyl)ethyl]-3-[3-(3-{[(methylamino)carbonyl]amino}phenyl)imidazo[1,2-b]pyridazin-7-yl]benzamide] | > 25
CNC(=O)C(C)c1ccc(-c2cnn3c(-c4cccc(NC(=O)NCC(F)(F)F)c4)cnc3c2)cc1 (centres unmarked) [Example 98, N-Methyl-2-(4-{3-[3-({[(2,2,2-trifluoroethyl)amino]carbonyl}amino)phenyl]imidazo[1,2-b]pyridazin-7-yl}phenyl)propanamide] | < 10
CC(C(=O)N(C)C)c1ccc(-c2cnn3c(-c4cccc(NC(=O)NCC(F)(F)F)c4)cnc3c2)cc1 (centres unmarked) [Example 99, N,N-Dimethyl-2-(4-{3-[3-({[(2,2,2-trifluoroethyl)amino]carbonyl}amino)phenyl]imidazo[1,2-b]pyridazin-7-yl}phenyl)propanamide] | < 10
CC(C(=O)NC[C@@H]1CCCO1)c1ccc(-c2cnn3c(-c4cccc(NC(=O)NCC(F)(F)F)c4)cnc3c2)cc1 (some centres unmarked) [Example 100] | < 10
CC(C(=O)N1CC[C@H](O)C1)c1ccc(-c2cnn3c(-c4cccc(NC(=O)NCC(F)(F)F)c4)cnc3c2)cc1 (stereo partly drawn) [Example 101, N-{3-[7-(4-{2-[(3S)-3-Hydroxypyrrolidin-1-yl]-1-methyl-2-oxoethyl}phenyl)imidazo[1,2-b]pyridazin-3-yl]phenyl}-N′-(2,2,2-trifluoroethyl)urea] | < 10
CC(C(=O)N1CCC(O)CC1)c1ccc(-c2cnn3c(-c4cccc(NC(=O)NCC(F)(F)F)c4)cnc3c2)cc1 (centres unmarked) [Example 102, N-[3-(7-{4-[2-(4-Hydroxypiperidin-1-yl)-1-methyl-2-oxoethyl]phenyl}imidazo[1,2-b]pyridazin-3-yl)phenyl]-N′-(2,2,2-trifluoroethyl)urea] | < 10
CC(C(=O)N[C@@H]1CCOC1)c1ccc(-c2cnn3c(-c4cccc(NC(=O)NCC(F)(F)F)c4)cnc3c2)cc1 (stereo partly drawn) [Example 103, N-[(3R)-Tetrahydrofuran-3-yl]-2-(4-{3-[3-({[(2,2,2-trifluoroethyl)amino]carbonyl}amino)phenyl]imidazo[1,2-b]pyridazin-7-yl}phenyl)propanamide] | < 10
CC(C(=O)N1CC(O)C1)c1ccc(-c2cnn3c(-c4cccc(NC(=O)NCC(F)(F)F)c4)cnc3c2)cc1 (centres unmarked) [Example 104, N-[3-(7-{4-[2-(3-Hydroxyazetidin-1-yl)-1-methyl-2-oxoethyl]phenyl}imidazo[1,2-b]pyridazin-3-yl)phenyl]-N′-(2,2,2-trifluoroethyl)urea] | < 10
CC(C(=O)N1CCOCC1)c1ccc(-c2cnn3c(-c4cccc(NC(=O)NCC(F)(F)F)c4)cnc3c2)cc1 (centres unmarked) [Example 105, N-(3-{7-[4-(1-Methyl-2-morpholin-4-yl-2-oxoethyl)phenyl]imidazo[1,2-b]pyridazin-3-yl}phenyl)-N′-(2,2,2-trifluoroethyl)urea] | < 10
CC(C(=O)N1CCC[C@H]1CO)c1ccc(-c2cnn3c(-c4cccc(NC(=O)NCC(F)(F)F)c4)cnc3c2)cc1 (stereo partly drawn) [Example 106, N-{3-[7-(4-{2-[(2S)-2-(Hydroxymethyl)pyrrolidin-1-yl]-1-methyl-2-oxoethyl}phenyl)imidazo[1,2-b]pyridazin-3-yl]phenyl}-N′-(2,2,2-trifluoroethyl)urea] | < 10
CC(C(=O)NCCN1CCOCC1)c1ccc(-c2cnn3c(-c4cccc(NC(=O)NCC(F)(F)F)c4)cnc3c2)cc1 (centres unmarked) [Example 107, N-(2-Morpholin-4-ylethyl)-2-(4-{3-[3-({[(2,2,2-trifluoroethyl)amino]carbonyl}amino)phenyl]imidazo[1,2-b]pyridazin-7-yl}phenyl)propanamide] | < 10
